According to US11793779B2, “Hica for use in prophylaxis and/or treatment of a disease or condition involving degradation of cartilage and/or disruption of cartilage homeostasis and/or integrity” (Salarusta Oy, priority 2020, dated 2023):

What was measured:
[1] = biological target: T1, human Matrix metalloproteinase 13 (MMP-13) (Homo sapiens, UniProt P45452); assay: MMP-13 mediated break down of aggrecan (SDS-PAGE, silver stain); type: biochemical; details: 10% racemic HICA, APMA-activated MMP-13, incubation 2 d, FIG. 1 line 11
T1 construct: purchased BioTeZ, Berlin-Buch, Berlin, Germany 30100802
Experimental: (§1) As positive inhibitor controls Ilomastat (Ilo, CC1010, Millipore) and chlorhexidine (CHX, Corsodyl®, [2 mg/ml] (GlaxoSmithKline, Brøndby, Denmark) were used and 50 mM Tris-HCl-buffer (TNC): pH 7.5; 0.2 M NaCl; 1.0 mM CaCl2) was used as neutral assay buffer.
(§2) MMP-13 was preincubated 1 hour at 37° C. with p-aminophenylmercuric acetate (APMA, A9563, Sigma-Aldrich) to optimally activate (pro)MMP-13. As substrate, Aggrecan was added and then ADAMTS-5 or activated MMP-13 as catalytic/proteolytic enzyme and TNC, as neutral control, and 10% HICA, CHX or Ilo as protease/MMP-inhibitors let incubated together from 1 hour (h) to 2 days (d). The enzyme reactions terminated by boiling with modified Laemmli buffer. The samples were analysed by 8% SDS-PAGE and after electrophoresis the defragmentation of Aggrecan was visualised using Silver Stain Pierce®.
(§3) Sample with concentrations in lines: • 1. 0.25 μl molecular weight standards. Bio-Rad • 2. 4.2 μl Aggrecan (0.5 μg/μl) • 3. 4 μl ADAMTS-5 (0.1 μg/μl) • 4. 4.2 μl Aggrecan+4 μl ADAMTS-5+6 μl TNC-buffer. inc: 2d • 5. 4.2 μl Aggrecan+4 μl ADAMTS-5+6 μl 10% HICA. inc: 2d • 6. 4.2 μl Aggrecan+4 μl ADAMTS-5+6 μl CHX (2 mg/ml). inc: 2d • 7. 1 μl MMP-13 (0.2 μg/μl)+3 μl 2 mM APMA+6 μl TNC • 8. 4.2 μl Aggrecan+1 μl MMP-13 (0.2 μg/μl)+3 μl 2 mM APMA+6 μl TNC. inc: 1h • 9. 4.2 μl Aggrecan+1 μl MMP-13 (0.2 μg/μl)+3 μl 2 mM APMA+6 μl TNC. inc: 2d • 10. […]

[2] = biological target: T2, recombinant human ADAMTS-5 (Homo sapiens, UniProt Q9UNA0); assay: ADAMTS-5 mediated break down of aggrecan (SDS-PAGE, silver stain); type: biochemical; details: 10% racemic HICA, pH 7.4, incubation 2 d, FIG. 1 line 5
T2 construct: purchased Chemicon International Inc. CC1034
T2 sequence (Q9UNA0 262-930): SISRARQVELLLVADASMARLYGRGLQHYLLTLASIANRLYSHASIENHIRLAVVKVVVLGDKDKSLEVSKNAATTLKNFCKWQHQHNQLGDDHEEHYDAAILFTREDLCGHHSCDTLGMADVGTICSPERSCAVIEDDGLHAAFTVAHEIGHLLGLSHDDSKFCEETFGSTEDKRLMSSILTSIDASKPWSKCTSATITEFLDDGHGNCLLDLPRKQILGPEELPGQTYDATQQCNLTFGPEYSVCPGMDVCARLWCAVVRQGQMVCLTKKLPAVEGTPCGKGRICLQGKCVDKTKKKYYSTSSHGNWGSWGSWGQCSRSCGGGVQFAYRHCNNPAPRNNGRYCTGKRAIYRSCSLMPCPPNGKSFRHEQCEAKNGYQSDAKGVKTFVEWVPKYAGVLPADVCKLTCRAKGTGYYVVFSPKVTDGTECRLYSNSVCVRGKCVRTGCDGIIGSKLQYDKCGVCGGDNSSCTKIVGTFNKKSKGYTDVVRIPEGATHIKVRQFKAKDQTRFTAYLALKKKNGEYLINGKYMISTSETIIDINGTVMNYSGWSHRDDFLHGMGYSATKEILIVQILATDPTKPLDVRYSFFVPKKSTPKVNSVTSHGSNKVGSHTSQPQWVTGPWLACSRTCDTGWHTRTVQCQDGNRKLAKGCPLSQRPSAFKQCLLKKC
Experimental: as §1, §2, §3

CC(C)CC(O)C(=O)O (racemic) [HICA, 2-hydroxy-4-methylpentanoic acid]
inhibition of break down of Aggrecan by MMP-13 [1]: inhibited the break down of Aggrecan | inhibition of break down of Aggrecan by ADAMTS-5 [2]: inhibited the break down of Aggrecan
